From patent US5922875A, “Aromatic acid diamides with antigastrin activity, a method for their preparation and their pharmaceutical use” (Rotta Research Laboratorium S.p.A., priority 1995, dated 1999) come the findings set out here.

For experiment [1], the target named is T1, type-B cholecystokynin (CCK-B) or gastrin receptors (Oryctolagus cuniculus, UniProt P46627).
T1 construct: rabbit gastric mucosa cells were prepared by conventional techniques; endogenous in cells; host or cells: freshly isolated rabbit gastric mucosa cells (collagenase/pronase digestion)
T1 sequence (P46627 1-452): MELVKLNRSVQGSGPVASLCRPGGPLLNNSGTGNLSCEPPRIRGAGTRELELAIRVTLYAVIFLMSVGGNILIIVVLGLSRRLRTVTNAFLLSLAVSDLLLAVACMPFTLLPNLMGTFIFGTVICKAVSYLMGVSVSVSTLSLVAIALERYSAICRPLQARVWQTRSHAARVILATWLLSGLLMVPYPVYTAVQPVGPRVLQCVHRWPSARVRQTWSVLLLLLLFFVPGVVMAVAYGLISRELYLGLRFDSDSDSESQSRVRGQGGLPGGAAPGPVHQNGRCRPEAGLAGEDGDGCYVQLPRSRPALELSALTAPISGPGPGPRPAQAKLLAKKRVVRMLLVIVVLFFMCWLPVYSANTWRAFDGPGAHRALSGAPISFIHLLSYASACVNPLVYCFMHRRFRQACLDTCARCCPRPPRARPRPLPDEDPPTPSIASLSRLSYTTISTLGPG
Description: Inhibition of the gastrin-induced increase of cytosolic calcium in rabbit gastric mucosa cells. The class given is cell-based. The text has this: The parietal cells of the gastric mucosa are responsible for the secretion of HCl. They present specific membrane receptors which may be activated by gastrin and which have been defined as type-B cholecystokynin (CCK-B) or gastrin receptors.
Since it has been observed that the activation of the CCK-B receptors by gastrin results in a raising of the levels of cytosolic calcium ions, a technique has been used for measuring the increase in intracellular calcium induced by gastrin in the presence and absence of the compounds which are the subject of the invention, as an index of the anti-gastrin activity of the compounds themselves.
Suspensions (0.8×10^6 /ml) of rabbit gastric mucosa cells were prepared by conventional techniques with the use of collagenase and pronase as digestive enzymes; the estimation of the [Ca^2+ ]i values, basal or achieved after stimulation of the cell system was carried out in accordance with Grynkiewicz et al [J.Biol.Chem 260 (1985), 3440]. In the control samples the cells were stimulated with […] while in the samples in which the effect of the compounds in question was evaluated, the cells were incubated therewith before stimulation with gastrin. The results are expressed as percentage increases in [Ca^2+ ]i with respect to the control value. The anti-gastrin activity of the compounds was expressed as the IC50 value, that is, the concentration (in μmoles/liter) at which the response to the stimulus induced by the gastrin was reduced by 50%. The results thus obtained for several compounds of the invention are given in Table 3 which also gives an index formed from the ratio between the peripheral anti-gastrin activity just described and the displacement activity derived from the study of binding to the cortical receptors of guinea pigs described above.

In a further experiment the target is T2, central CCK-B receptor (Cavia porcellus, UniProt H0VZC5).
T2 construct: The cerebral cortices of male albino guinea pigs were therefore used; from tissue; host or cells: cerebral cortex membranes of male albino guinea pigs
T2 sequence (H0VZC5 1-426): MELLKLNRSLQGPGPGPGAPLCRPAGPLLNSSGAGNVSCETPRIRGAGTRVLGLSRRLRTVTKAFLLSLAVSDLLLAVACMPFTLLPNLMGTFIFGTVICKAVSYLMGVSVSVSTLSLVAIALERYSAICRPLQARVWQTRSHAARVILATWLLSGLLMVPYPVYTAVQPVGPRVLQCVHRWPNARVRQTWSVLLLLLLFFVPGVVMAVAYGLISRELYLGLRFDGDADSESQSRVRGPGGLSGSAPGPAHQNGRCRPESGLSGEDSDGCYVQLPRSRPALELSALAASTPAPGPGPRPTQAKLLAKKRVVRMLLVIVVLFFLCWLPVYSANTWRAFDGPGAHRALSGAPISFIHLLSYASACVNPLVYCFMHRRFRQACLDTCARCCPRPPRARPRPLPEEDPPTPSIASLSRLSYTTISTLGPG
In words: Inhibition of binding of [3H][N-methyl-N-leucine]CCK-8 to guinea pig cortical membranes (anti-CCK-B in vitro). Here is the method:
The capacity of the compounds which are the subject of the invention to interact with the central CCK-B receptor was evaluated with the use of [3-H][N-methyl-N-leucine]CCK-8. […] The cerebral cortices of male albino guinea pigs were therefore used, the method given above being followed with slight modifications [Makovec et al.; Bioorganic & Med. Chem. Letters 3 (5)(1993), 861-866] so as to give a membrane content corresponding to about 300 mcg of protein/mL.

Experiment [2] deals with acid secretion induced by pentagastrin. In words: In vivo gastric anti-secretory activity in the anaesthetised rat, pentagastrin stimulation. As for the experimental part:
Gastric secretion was stimulated by pentagastrin and the method of Lai [Gut 5, (1964), 327-341] was used with slight modifications [Makovec et al, J.Med.Chem. 35 (1992), 28-38].
Pentagastrin dissolved in physiological saline was perfused for 120 minutes at a rate of 30 mcg/kg/h. After 60 minutes of perfusion (basal stimulation), the product to be tested was administered intravenously (I.V.) in bolus form, perfusion of the stimulant continuing for the remaining 60 minutes. The activity of the product was evaluated as the percentage reduction in acid secreted after the administration of the product with respect to the basal acidity measured in the first 60 minutes, during which time only pentagastrin was present.
The antagonists tested were administered at different doses in such a way as to enable the ID50 to be calculated, that is, the dose (in mg/kg I.V.) capable of inhibiting the effect of pentagastrin by 50%.

Experiment [3] addresses T3, cholecystokynin receptor (CCK-A) (Cavia porcellus, UniProt Q63931).
T3 construct: The experimental model used was the guinea pig gall bladder stimulated in vitro by CCK-8; from tissue; host or cells: guinea pig gall bladder in vitro
T3 sequence (Q63931 1-430): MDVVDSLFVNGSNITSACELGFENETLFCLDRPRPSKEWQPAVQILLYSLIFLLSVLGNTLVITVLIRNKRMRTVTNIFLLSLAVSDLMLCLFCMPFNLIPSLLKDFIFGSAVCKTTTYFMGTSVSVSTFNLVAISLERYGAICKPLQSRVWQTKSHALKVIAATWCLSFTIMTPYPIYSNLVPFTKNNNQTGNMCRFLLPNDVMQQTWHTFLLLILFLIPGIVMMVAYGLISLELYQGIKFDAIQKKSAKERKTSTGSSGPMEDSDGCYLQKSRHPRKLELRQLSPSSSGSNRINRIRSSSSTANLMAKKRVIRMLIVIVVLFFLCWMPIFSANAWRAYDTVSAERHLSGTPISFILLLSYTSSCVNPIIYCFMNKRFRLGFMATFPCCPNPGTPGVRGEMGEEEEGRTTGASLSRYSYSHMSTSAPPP
In words: Anti-CCK-A activity, guinea pig gall bladder stimulated in vitro by CCK-8. The conditions noted are these: selectivity CCK-B vs CCK-A. An excerpt: The experimental model used was the guinea pig gall bladder stimulated in vitro by CCK-8 according to the method described by Makovec et al. [(Arzneim. Forsch/Drug. Res. 35 (7), 1048-1051 (1985)].

Usually IC50 stands for the concentration needed to halve the response being measured.

SMILES strings stand for the structures.

On to `Cc1cc(C)c(NC(=O)CC(CC(=O)O)c2cccc3ccccc23)c(C(=O)N2CCC3(CCCC3)CC2)c1` (centres unmarked) [Compound 4], for which the IC50 came out at 4 nM in experiment [1] (cells stimulated with 5×10^-8 gastrin, [Ca2+]i); 4 nM in experiment [1] (gastrin-induced [Ca2+]i in rabbit gastric mucosa cells); 24 nM at central CCK-B receptor (displacement of [3H][N-methyl-N-leucine]CCK-8, cortical membrane in guinea pigs, read-out: IC50). The “times less active than pentagastrin” value on central CCK-B receptor (ratio of binding IC50 values) was 8 times. In experiment [2] (ID50 comparison, rat I.V.), the “times more powerful than CR 2194” value is on record as 10-50 times. The “times more powerful than cimetidine” value in experiment [2] (ID50 comparison, rat I.V.) is reported as 2-10 times. The ED50 in experiment [2] (iv, I.V. bolus, rat, pentagastrin perfusion, read-out: Activity (ID50)) is 0.2 mg/kg. Further, the “affinity times higher for the gastrin receptor (CCK-B) than for the cholecystokynin receptor (CCK-A)” value in experiment [3] is listed as “at least 300 times”.
